Measurements reported in patent publication US11439707B2, “Hypocrellin derivative substituted both in a peri-position and in 2-position by amino, preparation method, and application thereof” (priority 2017, dated 2022).

What was measured:
[1] = absorption spectrum (maximum absorption wavelength, molar extinction coefficient); assay type: physicochemical
[2] = singlet oxygen efficiency test, reference rose bengal; assay type: physicochemical

Compound | maximum absorption wavelength [1] [nm] | molar extinction coefficient [1] | singlet oxygen yield [2] [%]
COCCOCCOCCOCCOCCOCCOCCOCCOCCOCCOCCOCCOCCOCCOCCOCCOC(=O)C1CCC(CNc2c3c4c5c(c(OC)c(=O)c6c(NCC7CCC(C(=O)OCCOCCOCCOCCOCCOCCOCCOCCOCCOCCOCCOCCOCCOCCOCCOCCOC)CC7)cc(OC)c(c7c(OC)cc(O)c(c2=O)c74)c65)CC(C)=C3)CC1 (stereo not drawn) [HC-13d-PEG16] | 625 | 31,500 M^−1cm^−1 | 30
COc1c2c3c4c(c(NCc5cccc[n+]5C)c(=O)c5c(O)cc(OC)c(c6c(OC)cc(NCc7cccc[n+]7C)c(c1=O)c63)c54)C=C(C)C2C(C)=O (stereo not drawn) [HB-38d-N^+] | 626 | 21,500 M^−1cm^−1 | 20
COc1c2c3c4c(c(NCCCC(=O)NCCCCCCS(=O)(=O)O)c(=O)c5c(NCCCC(=O)NCCCCCCS(=O)(=O)O)cc(OC)c(c6c(OC)cc(O)c(c1=O)c63)c54)C=C(C)C2 [HC-8c-NH—C6-SO3H] | 632 | 33,500 M^−1cm^−1 | 35
COCCOCCOCCOCCOCCOCCOCCOCCOCCOCCOCCOCCOC(=O)C1CCCC(Nc2c3c4c5c(c(OC)c(=O)c6c(O)cc(OC)c(c7c(OC)cc(NC8CCCC(C(=O)OCCOCCOCCOCCOCCOCCOCCOCCOCCOCCOCCOCCOC)C8)c(c2=O)c74)c65)C(C(C)=O)C(C)=C3)C1 (stereo not drawn) [HB-15c-PEG12] | 630 | 33,000 M^−1cm^−1 | 35
COc1c2c3c4c(c(NCCS(=O)(=O)OC)c(=O)c5c(NCCS(=O)(=O)OC)cc(OC)c(c6c(OC)cc(O)c(c1=O)c63)c54)C=C(C)C2C(C)=O (stereo not drawn) [HB-12c] | 622 | 23,500 M^−1cm^−1 | 22
COc1c(NCCCC(=O)NCCCC[N+](C)(C)C)c2c(=O)cc(OC)c3c4c(OC)cc(=O)c5c(O)c(NCCCC(=O)NCCCC[N+](C)(C)C)c6c(c(c1CC(C)=C6)c23)c54 [HC-8b-NH—C4-N^+] | 626 | 30,500 M^−1cm^−1 | 32
CCCNc1c2c3c4c(c(OC)c(=O)c5c(O)cc(OC)c(c6c(OC)cc(NCCC)c(c1=O)c63)c54)C(C(C)=O)C(C)=C2 (stereo not drawn) [HB-33c] | 618 | 34,500 M^−1cm^−1 | 35
COCCOCCOCCOCCOCCOCCOC(=O)CCCNc1c(O)c2c(=O)cc(OC)c3c4c(OC)cc(=O)c5c(NCCCC(=O)OCCOCCOCCOCCOCCOCCOC)c(OC)c6c(c(c1C=C(C)C6C(C)=O)c23)c54 (stereo not drawn) [HB-8b-PEG6] | 622 | 30,000 M^−1cm^−1 | 30
COc1c2c3c4c(c(NCCS(=O)(=O)OC)c(=O)c5c(O)cc(OC)c(c6c(OC)cc(NCCS(=O)(=O)OC)c(c1=O)c63)c54)C=C(C)C2C(C)=O (stereo not drawn) [HB-12d] | 624 | 21,500 M^−1cm^−1 | 21
COCCOCCOCCOCCOCCOCCOCCC(=O)OC1CCC(Nc2c(O)c3c(=O)cc(OC)c4c5c(OC)cc(=O)c6c(NC7CCC(OC(=O)CCOCCOCCOCCOCCOCCOCCOC)C7)c(OC)c7c(c(c2C=C(C)C7C(C)=O)c34)c65)C1 (stereo not drawn) [HB-20b-PEG6] | 624 | 31,000 M^−1cm^−1 | 28
COc1c(O)c2c(=O)cc(OC)c3c4c(OC)cc(=O)c5c(NCCC(=O)O)c(NCCC(=O)O)c6c(c(c1C(C(C)=O)C(C)=C6)c23)c54 (stereo not drawn) [HB-10a] | 620 | 31,000 M^−1cm^−1 | 32
COc1c(NC2(CO)CC2)c2c(=O)cc(OC)c3c4c(OC)cc(=O)c5c(O)c(NC6(CO)CC6)c6c(c(c1C(C(C)=O)C(C)=C6)c23)c54 (stereo not drawn) [HB-35b] | 620 | 31,500 M^−1cm^−1 | 30
COc1c2c3c4c(c(NCCC(=O)O)c(=O)c5c(O)cc(OC)c(c6c(OC)cc(NCCC(=O)O)c(c1=O)c63)c54)C=C(C)C2C(C)=O (stereo not drawn) [HB-10d] | 621 | 32,500 M^−1cm^−1 | 32
COc1c(O)c2c(=O)cc(OC)c3c4c(OC)cc(=O)c5c(NC(CO)C(=O)O)c(NC(CO)C(=O)O)c6c(c(c1C(C(C)=O)C(C)=C6)c23)c54 (stereo not drawn) [HB-23a] | 625 | 21,500 M^−1cm^−1 | 20
CCNNc1c2c3c4c(c(OC)c(=O)c5c(NNCC)cc(OC)c(c6c(OC)cc(O)c(c1=O)c63)c54)C(C(C)=O)C(C)=C2 (stereo not drawn) [HB-36d] | 621 | 32,000 M^−1cm^−1 | 32
COc1c(O)c2c(=O)cc(OC)c3c4c(OC)cc(=O)c5c(NCCNCCOCCO)c(NCCNCCOCCO)c6c(c(c1C(C(C)=O)C(C)=C6)c23)c54 (stereo not drawn) [HB-5a-PEG1] | 622 | 29,500 M^−1cm^−1 | 28

Compound | maximum absorption wavelength [1] [nm] | molar extinction coefficient [1] | singlet oxygen yield [2] [%]
COCCOCCC(=O)OCCNc1c(NCCOC(=O)CCOCCOC)c2c(=O)cc(OC)c3c4c(OC)cc(=O)c5c(O)c(OC)c6c(c(c1C=C(C)C6)c23)c54 [HC-2a-PEG1] | 622 | 30,000 M^−1cm^−1 | 30
COCCOCCOCCOCCOCCOCCOCCC(=O)OCC1(Nc2c3c4c5c(c(OC)c(=O)c6c(O)cc(OC)c(c7c(OC)cc(NC8(COC(=O)CCOCCOCCOCCOCCOCCOCCOC)CC8)c(c2=O)c74)c65)C(C(C)=O)C(C)=C3)CC1 (stereo not drawn) [HB-35c-PEG6] | 630 | 33,500 M^−1cm^−1 | 38
COCCOCCOCCOCCOCCOCCOCCOCCOCCOCCOCCOCCOCCC(=O)OCCNc1c2c3c4c(c(OC)c(=O)c5c(O)cc(OC)c(c6c(OC)cc(NCCOC(=O)CCOCCOCCOCCOCCOCCOCCOCCOCCOCCOCCOCCOCCOC)c(c1=O)c63)c54)C(C(C)=O)C(C)=C2 (stereo not drawn) [HB-2c-PEG12] | 626 | 32,500 M^−1cm^−1 | 36
COc1c(NC2CCC(O)CC2)c2c(=O)cc(OC)c3c4c(OC)cc(=O)c5c(O)c(NC6CCC(O)CC6)c6c(c(c1C(C(C)=O)C(C)=C6)c23)c54 (stereo not drawn) [HB-17b] | 620 | 25,500 M^−1cm^−1 | 20
COc1c2c3c4c(c(NO)c(=O)c5c(NO)cc(OC)c(c6c(OC)cc(O)c(c1=O)c63)c54)C=C(C)C2 [HC-37c] | 624 | 34,000 M^−1cm^−1 | 36
COCCOCCC(=O)OC1CCC(Nc2c(NC3CCC(OC(=O)CCOCCOC)CC3)c3c(=O)cc(OC)c4c5c(OC)cc(=O)c6c(O)c(OC)c7c(c(c2C=C(C)C7C(C)=O)c34)c65)CC1 (stereo not drawn) [HB-17a-PEG1] | 622 | 30,500 M^−1cm^−1 | 30
COC(=O)C1CCC(CNc2c(NCC3CCC(C(=O)OC)CC3)c3c(=O)cc(OC)c4c5c(OC)cc(=O)c6c(O)c(OC)c7c(c(c2C=C(C)C7C(C)=O)c34)c65)CC1 (stereo not drawn) [HB-13a-AcE] | 625 | 27,000 M^−1cm^−1 | 25
COc1c(O)c2c(=O)cc(OC)c3c4c(OC)cc(=O)c5c(NC(CCC(=O)O)C(=O)O)c(NC(CCC(=O)O)C(=O)O)c6c(c(c1C(C(C)=O)C(C)=C6)c23)c54 (stereo not drawn) [HB-28a] | 621 | 20,500 M^−1cm^−1 | 18
COCCOCCC(=O)OCCOCCNc1c(NCCOCCOC(=O)CCOCCOC)c2c(=O)cc(OC)c3c4c(OC)cc(=O)c5c(O)c(OC)c6c(c(c1C=C(C)C6)c23)c54 [HC-1a-PEG1] | 622 | 30,500 M^−1cm^−1 | 32
COc1c2c3c4c(c(NCc5cccc[n+]5CCCC(=O)O)c(=O)c5c(O)cc(OC)c(c6c(OC)cc(NCc7cccc[n+]7CCCC(=O)O)c(c1=O)c63)c54)C=C(C)C2C(C)=O (stereo not drawn) [HB-38d-N—COOH] | 626 | 21,000 M^−1cm^−1 | 20
COCCOCCC(=O)OCCOCCNc1c2c3c4c(c(OC)c(=O)c5c(O)cc(OC)c(c6c(OC)cc(NCCOCCOC(=O)CCOCCOC)c(c1=O)c63)c54)C(C(C)=O)C(C)=C2 (stereo not drawn) [HB-1c-PEG1] | 626 | 33,000 M^−1cm^−1 | 38
COC(=O)C1CCC(CNc2c3c4c5c(c(OC)c(=O)c6c(O)cc(OC)c(c7c(OC)cc(NCC8CCC(C(=O)OC)CC8)c(c2=O)c74)c65)C(C(C)=O)C(C)=C3)CC1 (stereo not drawn) [HB-13c-AcE] | 621 | 28,500 M^−1cm^−1 | 30
COc1c2c3c4c(c(NCCCS(=O)(=O)O)c(=O)c5c(O)cc(OC)c(c6c(OC)cc(NCS(=O)(=O)O)c(c1=O)c63)c54)C=C(C)C2 [HC-45d] | 624 | 21,000 M^−1cm^−1 | 21
COc1c2c3c4c(c(NC(CCC(=O)O)C(=O)O)c(=O)c5c(O)cc(OC)c(c6c(OC)cc(NC(CCC(=O)O)C(=O)O)c(c1=O)c63)c54)C=C(C)C2C(C)=O (stereo not drawn) [HB-28d] | 620 | 20,500 M^−1cm^−1 | 18
COCCOCCOCCOCCOC(=O)C1CCC(CNc2c3c4c5c(c(OC)c(=O)c6c(O)cc(OC)c(c7c(OC)cc(NCC8CCC(C(=O)OCCOCCOCCOCCOC)CC8)c(c2=O)c74)c65)C(C(C)=O)C(C)=C3)CC1 (stereo not drawn) [HB-13c-PEG4] | 630 | 32,500 M^−1cm^−1 | 38
COCCOCCOCCOCCOCCOCCOC(=O)CCCNc1c2c3c4c(c(OC)c(=O)c5c(NCCCC(=O)OCCOCCOCCOCCOCCOCCOC)cc(OC)c(c6c(OC)cc(O)c(c1=O)c63)c54)C(C(C)=O)C(C)=C2 (stereo not drawn) [HB-8d-PEG6] | 620 | 31,500 M^−1cm^−1 | 32
